≈ marks a conversion by molar mass, not a printed value. Read-outs that look alike come from different tables or passages of the source.
Legend:
Format in all cases: cell-based, Pseudomonas aeruginosa
[1] = test system: susceptible clinical isolate of P. aeruginosa (PSA 9/53); assay: Single-cell swimming speed (ASK software) relative to antibiotic-free control; conditions: ciprofloxacin 4 μg/ml, meropenem 0.5 μg/ml, gentamicin 8 μg/ml; FIG. 17
Source text: The swimming speed (y axis) was normalized by the speed in the control (which thus becomes the dashed line at 1).

[2] = test system: clinical isolate P. aeruginosa 9/53; assay: MIC by broth microdilution assay
P. aeruginosa PA14 = assay: Single-cell swimming kinematics (ASK software, phase contrast video microscopy) upon antibiotic exposure; conditions: for change in swimming speed compared to antibiotic-free control: FIG. 12
P. aeruginosa ATCC 27853 = assay: MIC by broth microdilution assay

Compound | sensitivity of motility (swimming speed) to the antibiotic [1] | MIC ([2]; Pseudomonas aeruginosa, read-out: MIC) [µg/mL] | change in swimming speed compared to antibiotic-free control (P. aeruginosa PA14; 0.1 μg/ml) | decrease of mean swimming speed compared to the antibiotic-free control (P. aeruginosa PA14; 1 μg/ml, after 30 min) [%] | mean swimming speed of exposed cells (P. aeruginosa PA14; 1 μg/ml, after 30 min) [μm/s] | decrease of mean swimming speed compared to the antibiotic-free control (P. aeruginosa PA14; 1 μg/ml, after 50 min) [%] | mean swimming speed of exposed cells (P. aeruginosa PA14; 1 μg/ml, after 50 min) [μm/s] | decrease of mean swimming speed compared to the antibiotic-free control (P. aeruginosa PA14; 1 μg/ml, after 70 min) [%] | mean swimming speed of exposed cells (P. aeruginosa PA14; 1 μg/ml, after 70 min) [μm/s] | MIC (P. aeruginosa ATCC 27853) [µg/mL] | MIC [2] [µg/mL] | change in swimming speed compared to antibiotic-free control (P. aeruginosa PA14; 1 μg/ml) | change in swimming speed compared to antibiotic-free control (P. aeruginosa PA14; 10 μg/ml)
C[C@@H](O)[C@H]1C(=O)N2C(C(=O)O)=C(S[C@@H]3CN[C@H](C(=O)N(C)C)C3)[C@H](C)[C@H]12 [meropenem] | less so | 0.5 (≈ 1.3 µM) |  |  |  |  |  |  |  |  |  |  | 
CC(C)(O/N=C(\C(=O)N[C@@H]1C(=O)N2C(C(=O)[O-])=C(C[n+]3ccccc3)CS[C@H]12)c1csc(N)n1)C(=O)O [ceftazidime] |  |  | no significant changes | 14 | 42.6 | 23 | 35.4 | 33 | 31.2 |  |  |  | 
gentamicin | very sensitive |  | not |  |  |  |  |  |  | 1 | 1 | not | significantly reduced

Source: US11761023B2, “Analyzing and using motility kinematics of microorganisms” (PhAST Corp., priority 2017, dated 2023)
